Measured values as given in ChEMBL document CHEMBL1145498, “A systematic interaction map of validated kinase inhibitors with Ser/Thr kinases” (Proc Natl Acad Sci U S A, 2007).

How the values were obtained:
[1] = target: Calcium/calmodulin-dependent protein kinase type 1G (Homo sapiens) (UniProt Q96NX5)
[2] = target: Calcium/calmodulin-dependent protein kinase kinase 2 (Homo sapiens, UniProt Q96RR4)
[3] = target: Cyclin-dependent kinase 6 (Homo sapiens) (UniProt Q00534)
[4] = target: Serine/threonine-protein kinase Chk2 (Homo sapiens, UniProt O96017)
[5] = target: Dual specificity protein kinase CLK1 (Homo sapiens) (UniProt P49759)
[6] = target: Dual specificity protein kinase CLK2 (Homo sapiens) (UniProt P49760)
[7] = target: Dual specificity protein kinase CLK3 (Homo sapiens) (UniProt P49761)
[8] = target: Casein kinase I isoform gamma-1 (Homo sapiens) (UniProt Q9HCP0)
[9] = target: Mitogen-activated protein kinase 6 (Homo sapiens) (UniProt Q16659)
[10] = target: Serine/threonine-protein kinase OSR1 (Homo sapiens) (UniProt O95747)
[11] = target: Serine/threonine-protein kinase PAK 5 (Homo sapiens) (UniProt Q9P286)
[12] = target: Cyclin-dependent kinase 16 (Homo sapiens) (UniProt Q00536)
[13] = target: Serine/threonine-protein kinase pim-2 (Homo sapiens, UniProt Q9P1W9)
[14] = target: Ribosomal protein S6 kinase alpha-3 (Homo sapiens) (UniProt P51812)
[15] = target: Ribosomal protein S6 kinase alpha-3 (Homo sapiens) (UniProt P51812); remark: listed apart in the source
[16] = target: STE20-like serine/threonine-protein kinase (Homo sapiens) (UniProt Q9H2G2)
[17] = target: Serine/threonine-protein kinase 16 (Homo sapiens) (UniProt O75716)
[18] = target: Serine/threonine-protein kinase 38 (Homo sapiens) (UniProt Q15208)
[19] = target: Serine/threonine-protein kinase 26 (Homo sapiens) (UniProt Q9P289)
[20] = target: T1, Serine/threonine-protein kinase 4 (Homo sapiens) (UniProt Q13043)
T1 sequence (whole entry): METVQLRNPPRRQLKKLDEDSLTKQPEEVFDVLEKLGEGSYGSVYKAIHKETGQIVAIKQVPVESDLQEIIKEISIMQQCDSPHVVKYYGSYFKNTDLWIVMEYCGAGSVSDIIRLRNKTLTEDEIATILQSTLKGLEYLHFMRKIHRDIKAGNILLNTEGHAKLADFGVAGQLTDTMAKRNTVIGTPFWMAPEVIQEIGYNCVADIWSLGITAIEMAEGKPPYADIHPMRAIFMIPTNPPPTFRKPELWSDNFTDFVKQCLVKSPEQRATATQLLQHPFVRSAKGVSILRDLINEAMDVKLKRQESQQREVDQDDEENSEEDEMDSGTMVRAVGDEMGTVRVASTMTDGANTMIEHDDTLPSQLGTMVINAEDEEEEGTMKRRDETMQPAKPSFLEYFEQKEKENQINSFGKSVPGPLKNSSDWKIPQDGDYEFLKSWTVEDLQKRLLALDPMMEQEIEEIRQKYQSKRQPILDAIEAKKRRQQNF

[21] = target: T2, Serine/threonine-protein kinase VRK3 (Homo sapiens) (UniProt Q8IV63)
T2 sequence (whole entry): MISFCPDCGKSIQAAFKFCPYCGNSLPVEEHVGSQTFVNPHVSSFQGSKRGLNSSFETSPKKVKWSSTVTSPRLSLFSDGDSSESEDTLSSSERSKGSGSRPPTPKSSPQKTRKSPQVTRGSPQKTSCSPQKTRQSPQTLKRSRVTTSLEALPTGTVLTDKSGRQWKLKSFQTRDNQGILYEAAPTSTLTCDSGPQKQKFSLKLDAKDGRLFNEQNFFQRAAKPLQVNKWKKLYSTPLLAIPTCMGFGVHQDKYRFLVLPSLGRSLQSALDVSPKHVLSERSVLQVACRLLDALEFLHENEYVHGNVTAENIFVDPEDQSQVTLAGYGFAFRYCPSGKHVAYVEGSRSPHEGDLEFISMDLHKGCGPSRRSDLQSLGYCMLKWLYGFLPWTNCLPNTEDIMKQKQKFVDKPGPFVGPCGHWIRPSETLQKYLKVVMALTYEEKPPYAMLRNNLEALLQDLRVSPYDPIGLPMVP

Chain of Serine/threonine-protein kinase 38 (Homo sapiens) (Q15208 2-465 limits assumed): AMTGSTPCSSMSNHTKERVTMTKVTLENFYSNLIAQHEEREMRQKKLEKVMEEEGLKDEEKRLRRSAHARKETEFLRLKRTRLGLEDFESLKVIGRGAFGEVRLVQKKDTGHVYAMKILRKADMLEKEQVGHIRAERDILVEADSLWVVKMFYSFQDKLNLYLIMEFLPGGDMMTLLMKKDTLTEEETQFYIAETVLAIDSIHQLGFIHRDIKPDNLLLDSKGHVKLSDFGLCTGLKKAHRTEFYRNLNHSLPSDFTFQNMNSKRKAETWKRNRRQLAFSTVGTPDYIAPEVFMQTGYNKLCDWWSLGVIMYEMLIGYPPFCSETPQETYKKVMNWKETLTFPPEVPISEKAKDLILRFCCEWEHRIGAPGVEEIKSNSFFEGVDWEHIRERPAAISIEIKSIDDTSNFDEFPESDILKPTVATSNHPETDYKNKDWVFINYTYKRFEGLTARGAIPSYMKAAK
Chain of Serine/threonine-protein kinase 26 (Homo sapiens) (Q9P289 2-416 limits assumed): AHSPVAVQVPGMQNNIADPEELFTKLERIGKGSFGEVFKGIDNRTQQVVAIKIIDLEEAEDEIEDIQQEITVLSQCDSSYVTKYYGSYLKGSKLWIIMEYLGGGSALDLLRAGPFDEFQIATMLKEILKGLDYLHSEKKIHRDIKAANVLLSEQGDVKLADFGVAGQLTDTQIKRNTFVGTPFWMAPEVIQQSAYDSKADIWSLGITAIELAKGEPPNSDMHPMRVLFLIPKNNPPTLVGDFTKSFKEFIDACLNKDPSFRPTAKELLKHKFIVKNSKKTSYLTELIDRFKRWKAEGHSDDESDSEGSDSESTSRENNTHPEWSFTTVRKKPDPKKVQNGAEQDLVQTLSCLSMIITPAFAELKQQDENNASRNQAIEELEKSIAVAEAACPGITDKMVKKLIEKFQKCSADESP
Chain of Calcium/calmodulin-dependent protein kinase type 1G (Homo sapiens) (Q96NX5 whole entry): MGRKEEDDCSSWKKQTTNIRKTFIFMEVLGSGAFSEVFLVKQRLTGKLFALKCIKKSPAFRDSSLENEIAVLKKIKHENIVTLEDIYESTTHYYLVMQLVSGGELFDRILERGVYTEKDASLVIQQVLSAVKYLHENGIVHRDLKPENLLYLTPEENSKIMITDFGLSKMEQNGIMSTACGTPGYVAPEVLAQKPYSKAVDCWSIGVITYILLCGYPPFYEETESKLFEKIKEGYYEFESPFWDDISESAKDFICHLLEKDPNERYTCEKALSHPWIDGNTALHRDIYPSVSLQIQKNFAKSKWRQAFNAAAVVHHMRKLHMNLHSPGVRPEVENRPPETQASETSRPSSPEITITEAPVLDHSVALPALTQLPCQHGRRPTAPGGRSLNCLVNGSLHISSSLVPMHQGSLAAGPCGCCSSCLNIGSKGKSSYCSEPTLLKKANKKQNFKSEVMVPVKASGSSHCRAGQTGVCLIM
Chain of Serine/threonine-protein kinase pim-2 (Q9P1W9 whole entry, looked up): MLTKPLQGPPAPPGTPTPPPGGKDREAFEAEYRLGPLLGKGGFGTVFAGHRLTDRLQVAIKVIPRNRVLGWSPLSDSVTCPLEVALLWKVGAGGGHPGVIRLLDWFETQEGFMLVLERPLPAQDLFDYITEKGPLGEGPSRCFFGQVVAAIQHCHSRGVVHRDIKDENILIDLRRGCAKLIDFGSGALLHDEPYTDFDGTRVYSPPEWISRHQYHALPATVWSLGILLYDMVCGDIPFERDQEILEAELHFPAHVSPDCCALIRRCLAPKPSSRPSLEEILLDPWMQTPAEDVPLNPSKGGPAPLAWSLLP
Chain of Dual specificity protein kinase CLK2 (Homo sapiens) (P49760 whole entry, looked up): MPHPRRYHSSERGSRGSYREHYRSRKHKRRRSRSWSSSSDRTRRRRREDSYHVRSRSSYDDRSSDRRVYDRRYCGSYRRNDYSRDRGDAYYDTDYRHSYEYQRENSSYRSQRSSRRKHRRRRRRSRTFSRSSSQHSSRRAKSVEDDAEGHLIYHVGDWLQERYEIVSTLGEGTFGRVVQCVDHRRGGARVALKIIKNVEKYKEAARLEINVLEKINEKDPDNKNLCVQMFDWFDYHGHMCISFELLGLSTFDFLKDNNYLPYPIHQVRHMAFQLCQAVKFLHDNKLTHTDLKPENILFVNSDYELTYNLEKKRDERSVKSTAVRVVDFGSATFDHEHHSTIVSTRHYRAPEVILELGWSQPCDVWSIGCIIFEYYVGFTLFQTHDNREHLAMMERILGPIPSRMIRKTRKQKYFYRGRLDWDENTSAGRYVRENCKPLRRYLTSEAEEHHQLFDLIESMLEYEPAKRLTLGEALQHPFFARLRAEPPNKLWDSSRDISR
Chain of Serine/threonine-protein kinase PAK 5 (Homo sapiens) (Q9P286 whole entry, looked up): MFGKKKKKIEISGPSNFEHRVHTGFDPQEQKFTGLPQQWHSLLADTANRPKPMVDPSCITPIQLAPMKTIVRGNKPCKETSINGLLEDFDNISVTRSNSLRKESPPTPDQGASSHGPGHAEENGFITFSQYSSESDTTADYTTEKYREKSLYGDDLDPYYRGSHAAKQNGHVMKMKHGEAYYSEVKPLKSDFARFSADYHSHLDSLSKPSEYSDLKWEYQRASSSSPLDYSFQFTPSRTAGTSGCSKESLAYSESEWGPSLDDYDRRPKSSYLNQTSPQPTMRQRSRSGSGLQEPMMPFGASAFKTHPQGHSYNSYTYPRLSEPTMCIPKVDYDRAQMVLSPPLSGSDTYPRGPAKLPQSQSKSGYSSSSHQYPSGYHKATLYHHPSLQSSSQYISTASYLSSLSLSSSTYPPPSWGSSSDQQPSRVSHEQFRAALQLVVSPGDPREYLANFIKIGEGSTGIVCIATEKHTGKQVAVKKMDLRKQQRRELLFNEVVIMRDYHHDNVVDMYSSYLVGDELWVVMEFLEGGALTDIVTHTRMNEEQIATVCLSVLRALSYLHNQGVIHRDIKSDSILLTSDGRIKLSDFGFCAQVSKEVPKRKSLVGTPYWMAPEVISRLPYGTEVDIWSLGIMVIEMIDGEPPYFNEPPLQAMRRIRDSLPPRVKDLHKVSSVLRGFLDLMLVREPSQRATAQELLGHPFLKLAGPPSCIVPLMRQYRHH
Chain of Dual specificity protein kinase CLK1 (Homo sapiens) (P49759 whole entry, looked up): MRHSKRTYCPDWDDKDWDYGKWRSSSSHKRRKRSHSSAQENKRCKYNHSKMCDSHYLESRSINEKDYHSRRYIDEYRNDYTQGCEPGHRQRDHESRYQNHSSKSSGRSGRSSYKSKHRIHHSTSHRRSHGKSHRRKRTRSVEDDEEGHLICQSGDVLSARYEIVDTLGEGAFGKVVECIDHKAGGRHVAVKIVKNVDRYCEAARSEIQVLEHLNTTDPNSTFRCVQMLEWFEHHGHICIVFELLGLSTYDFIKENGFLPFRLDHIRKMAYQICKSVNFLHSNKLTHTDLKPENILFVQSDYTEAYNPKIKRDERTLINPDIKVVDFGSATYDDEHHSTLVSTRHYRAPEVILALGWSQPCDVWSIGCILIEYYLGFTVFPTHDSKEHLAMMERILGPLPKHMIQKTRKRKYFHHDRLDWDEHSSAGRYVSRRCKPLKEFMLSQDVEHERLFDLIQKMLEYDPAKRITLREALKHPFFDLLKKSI
Chain of Serine/threonine-protein kinase OSR1 (Homo sapiens) (O95747 2-527 limits assumed): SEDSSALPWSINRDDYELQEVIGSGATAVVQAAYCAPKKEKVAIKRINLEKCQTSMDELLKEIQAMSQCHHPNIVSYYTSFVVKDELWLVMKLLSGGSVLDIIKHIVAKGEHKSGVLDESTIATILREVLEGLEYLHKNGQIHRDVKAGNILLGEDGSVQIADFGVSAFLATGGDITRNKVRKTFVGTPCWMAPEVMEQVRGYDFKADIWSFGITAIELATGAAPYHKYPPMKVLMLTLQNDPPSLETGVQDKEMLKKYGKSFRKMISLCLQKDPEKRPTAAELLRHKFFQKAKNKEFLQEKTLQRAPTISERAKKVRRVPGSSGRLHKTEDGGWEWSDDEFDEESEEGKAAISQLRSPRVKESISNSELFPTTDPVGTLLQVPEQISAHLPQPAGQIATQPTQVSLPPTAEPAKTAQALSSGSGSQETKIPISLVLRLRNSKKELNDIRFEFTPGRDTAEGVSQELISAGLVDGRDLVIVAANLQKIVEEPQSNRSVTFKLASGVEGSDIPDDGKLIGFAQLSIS
Chain of Casein kinase I isoform gamma-1 (Homo sapiens) (Q9HCP0 whole entry, looked up, canonical isoform): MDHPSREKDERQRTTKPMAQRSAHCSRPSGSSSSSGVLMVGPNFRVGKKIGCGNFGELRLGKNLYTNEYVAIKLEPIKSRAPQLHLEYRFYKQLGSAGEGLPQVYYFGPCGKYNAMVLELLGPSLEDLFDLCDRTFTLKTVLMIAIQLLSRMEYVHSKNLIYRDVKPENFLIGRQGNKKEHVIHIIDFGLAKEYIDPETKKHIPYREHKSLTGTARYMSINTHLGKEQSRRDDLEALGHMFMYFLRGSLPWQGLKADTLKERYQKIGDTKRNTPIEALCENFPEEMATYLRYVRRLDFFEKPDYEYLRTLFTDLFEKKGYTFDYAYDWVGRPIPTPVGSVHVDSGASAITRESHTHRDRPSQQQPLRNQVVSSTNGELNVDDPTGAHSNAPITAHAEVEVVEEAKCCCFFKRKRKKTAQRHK
Chain of Cyclin-dependent kinase 6 (Homo sapiens) (Q00534 whole entry): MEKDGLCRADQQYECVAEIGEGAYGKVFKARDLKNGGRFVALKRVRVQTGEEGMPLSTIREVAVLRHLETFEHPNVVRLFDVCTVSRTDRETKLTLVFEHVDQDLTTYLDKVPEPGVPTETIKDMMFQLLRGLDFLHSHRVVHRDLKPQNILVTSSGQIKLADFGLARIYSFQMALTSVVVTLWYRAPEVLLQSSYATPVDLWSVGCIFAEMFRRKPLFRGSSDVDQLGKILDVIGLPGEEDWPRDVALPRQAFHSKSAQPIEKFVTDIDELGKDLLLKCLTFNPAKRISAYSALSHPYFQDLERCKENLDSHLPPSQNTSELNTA
Chain of Serine/threonine-protein kinase 16 (Homo sapiens) (O75716 whole entry): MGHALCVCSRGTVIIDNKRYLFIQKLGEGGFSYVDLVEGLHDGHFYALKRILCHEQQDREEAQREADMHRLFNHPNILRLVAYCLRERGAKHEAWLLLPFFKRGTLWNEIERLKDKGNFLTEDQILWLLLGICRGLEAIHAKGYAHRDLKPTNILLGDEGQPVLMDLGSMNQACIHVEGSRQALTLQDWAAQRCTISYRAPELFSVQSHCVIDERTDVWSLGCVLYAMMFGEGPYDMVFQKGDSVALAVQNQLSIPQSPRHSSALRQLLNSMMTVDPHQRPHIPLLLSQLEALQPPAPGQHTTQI

ΔTm [1] [°C] | ΔTm [2] [°C] | ΔTm [3] [°C] | ΔTm [4] [°C] | ΔTm [5] [°C] | ΔTm [6] [°C] | ΔTm [7] [°C] | ΔTm [8] [°C] | ΔTm [9] [°C] | ΔTm [10] [°C] | ΔTm [11] [°C] | ΔTm [12] [°C] | ΔTm [13] [°C] | ΔTm [14] [°C] | ΔTm [15] [°C] | ΔTm [16] [°C] | ΔTm [17] [°C] | ΔTm [18] [°C] | ΔTm [19] [°C] | ΔTm [20] [°C] | SMILES | other results
0 | 0.1 | 0.5 | 0.4 | -0.5 | 0.3 | 0.9 | 0.5 | 0 | 0 | 0.1 | -0.4 | 0 | -0.2 | 6.3 | 8.2 | 0.7 | -0.3 | 0.6 | 0.5 | C#Cc1cccc(Nc2ncnc3cc(OCCOC)c(OCCOC)cc23)c1 | ΔTm [21]: 0.2 °C
0.1 | 0.2 | 0.4 | 0.4 | 1 | 0.7 | 0.5 | 0.4 | 0.4 | 0.7 | 0.3 | -0.6 | 1.9 | 0.6 | 1.2 | 2.9 | 0.4 | 0.1 | 0 | 0.4 | N#C/C(=C\c1ccc(O)c(O)c1)C(=O)NCc1ccccc1 | ΔTm [21]: -0.2 °C
-0.1 | -0.2 | 0.2 | -0.2 | 0.8 | 0.1 | -0.1 | 1 | 0.2 | 0.9 | 0.5 | -0.4 | 0.8 | 0.6 | 0.3 | 4.4 | 0.5 | 0.7 | -0.4 | 0.9 | Oc1ccc(-c2nc(-c3ccc(F)cc3)c(-c3ccncc3)[nH]2)cc1 | ΔTm [21]: 0.3 °C
0 | 0.5 | -0.3 | -0.1 | 0 | 0.1 | 0.1 | 0 | 0.2 | 0.1 | -0.1 | -0.6 | 0.7 | 0 | 0.1 | 0.1 | 0.1 | 0.3 | -0.2 | 0 | O=c1ccc2ccc(O)c(O)c2o1 [DAPHNETIN] | ΔTm [21]: -0.1 °C
0 | -0.1 | 0 | 0 | 0 | 0.2 | 0.3 | 0.2 | 0.1 | 0.9 | 0 | -0.5 | 0.1 | 2.1 | 0.1 | 0.5 | 1 | 0.3 | -0.5 | 0.4 | CCOc1cc(/C=C(\C#N)C(N)=O)cc(CSc2ccccc2)c1O | ΔTm [21]: -0.6 °C
3.1 | 5.9 | 5.9 | 4.9 | 7.7 | 7.8 | 4 | 2.4 | 0.4 | 3.1 | 3.3 | 8.9 | 2.8 | 7.5 | 4.1 | 4.7 | 11.7 | 3.8 | 7 | 8.4 | O=C1Nc2ccccc2/C1=C1/Nc2ccccc2/C1=N\O | ΔTm [21]: 2.3 °C
0.3 | -0.8 | 0.8 | 0.6 | 2 | 1.1 | 0.3 | 0.5 | 0.6 | -0.4 | 0.6 | 3 | 1.7 | 7.4 | 0.8 | 4.2 | 1.3 | 0.3 | 0.4 | 4.9 | CN(C)CC1CCn2c(c(C3=C(c4c[nH]c5ccccc45)C(=O)NC3=O)c3ccccc32)C1 (configuration not stated) | ΔTm [21]: 0.6 °C
0.2 | 2 | 0.2 | 0.5 | 2.6 | 2.2 | 1 | 1.4 | -0.3 | 0.3 | 0.4 | -0.5 | 0.2 | 1 | 2.5 | 0.4 | 0.6 | 0.3 | 0.1 | -0.3 | CC(C)n1cnc2c(NCc3ccccc3)nc(NCCCO)nc21 | ΔTm [21]: -0.3 °C
2 | 2.4 | 0.3 | 6 | 4.7 | 3 | 2 | 1.7 | 0.5 | 3.2 | 1.1 | 0.1 | 3.6 | 3.5 | 7 | 2.2 | 6.9 | 1 | 3.3 | 4.3 | O=C1c2ccccc2-c2n[nH]c3cccc1c23 | ΔTm [21]: 0.1 °C
0.9 | 3 | 0.4 | 2.7 | 3.9 | 2.8 | 3.1 | 1.4 | 0.5 | 2.2 | 0.4 | 1.2 | 3.8 | 2.7 | 2.4 | 2.4 | 4.8 | 1.1 | 2.1 | 2.8 | O=c1cc(-c2ccc(O)cc2)oc2cc(O)cc(O)c12 | ΔTm [21]: 0.2 °C
0.3 | 0.1 | 0.3 | 0.1 | 1.3 | 0.3 | 0.1 | 3 | 0.3 | 0.3 | 0 | 0.5 | 0.2 | 0.8 | -0.1 | 1.1 | -0.1 | 0.3 | 2.1 | 2.6 | Nc1nccc(-c2c(-c3ccc(F)cc3)ncn2C2CCNCC2)n1 | ΔTm [21]: 0 °C

SMILES | ΔTm [1] [°C] | ΔTm [2] [°C] | ΔTm [3] [°C] | ΔTm [4] [°C] | ΔTm [5] [°C] | ΔTm [6] [°C] | ΔTm [7] [°C] | ΔTm [8] [°C] | ΔTm [9] [°C] | ΔTm [10] [°C] | ΔTm [11] [°C] | ΔTm [12] [°C] | ΔTm [13] [°C] | ΔTm [14] [°C] | ΔTm [15] [°C] | ΔTm [16] [°C] | ΔTm [17] [°C] | ΔTm [18] [°C] | ΔTm [19] [°C] | ΔTm [20] [°C] | other results
NC(=O)c1ccc(-c2nc(-c3ccc4c(c3)OCCO4)c(-c3ccccn3)[nH]2)cc1 | 1 | -1.1 | 0.4 | -0.3 | -0.4 | -0.3 | 0.1 | 0.4 | -0.1 | -0.1 | 0.4 | -0.4 | -0.2 | -0.1 | 0 | -1.1 | 0.1 | 0.5 | -0.2 | 1.1 | ΔTm [21]: 0.3 °C
